Experimental data as given in US20210277003A1, “OGA INHIBITOR COMPOUNDS” (Janssen Pharmaceutica NV, priority 2018, published 2021).

Key:
[1] = target: T1, recombinant human Meningioma Expressed Antigen 5 (MGEA5), also referred to as O-GlcNAcase (OGA) (Homo sapiens, UniProt O60502); assay: OGA biochemical assay: inhibition of hydrolysis of fluorescein mono-ß-D-N-Acetyl-Glucosamine (FM-GlcNAc), fluorescence readout; conditions: FM-GlcNAc substrate; for Emax: read-out: Enzymatic Emax (%); for IC50: read-out: Enzymatic hOGA, pIC50 (converted)
T1 construct: Full length OGA enzyme was purchased at OnGene (cat #TP322411); purchased OnGene (so in the source)
T1 sequence (O60502 1-916): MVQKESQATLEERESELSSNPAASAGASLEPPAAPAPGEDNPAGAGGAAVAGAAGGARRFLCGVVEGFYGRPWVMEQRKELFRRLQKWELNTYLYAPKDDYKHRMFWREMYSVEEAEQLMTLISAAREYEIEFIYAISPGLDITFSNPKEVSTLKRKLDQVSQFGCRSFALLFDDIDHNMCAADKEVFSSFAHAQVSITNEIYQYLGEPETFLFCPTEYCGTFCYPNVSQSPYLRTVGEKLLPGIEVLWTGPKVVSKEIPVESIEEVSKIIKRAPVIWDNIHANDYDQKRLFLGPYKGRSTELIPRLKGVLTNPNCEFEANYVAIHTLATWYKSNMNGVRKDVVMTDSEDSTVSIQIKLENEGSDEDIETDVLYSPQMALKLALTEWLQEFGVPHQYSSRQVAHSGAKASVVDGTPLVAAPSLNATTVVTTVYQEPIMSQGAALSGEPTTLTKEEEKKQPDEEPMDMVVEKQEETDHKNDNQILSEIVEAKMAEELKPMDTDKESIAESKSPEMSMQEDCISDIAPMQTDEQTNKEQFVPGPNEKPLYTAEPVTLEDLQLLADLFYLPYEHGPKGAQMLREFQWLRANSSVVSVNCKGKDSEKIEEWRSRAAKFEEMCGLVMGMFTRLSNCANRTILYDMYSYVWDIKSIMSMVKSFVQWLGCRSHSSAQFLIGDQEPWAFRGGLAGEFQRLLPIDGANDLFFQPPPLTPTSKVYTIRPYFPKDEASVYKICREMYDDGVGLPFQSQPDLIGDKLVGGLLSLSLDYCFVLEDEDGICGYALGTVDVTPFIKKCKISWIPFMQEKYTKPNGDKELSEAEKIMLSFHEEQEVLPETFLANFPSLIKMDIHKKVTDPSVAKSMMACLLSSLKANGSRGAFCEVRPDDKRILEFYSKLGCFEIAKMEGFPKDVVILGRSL
From the text: The assay is based on the inhibition of the hydrolysis of fluorescein mono-ß-D-N-Acetyl-Glucosamine (FM-GlcNAc) (Mariappa et al. 2015, Biochem J 470:255) by the recombinant human Meningioma Expressed Antigen 5 (MGEA5), also referred to as O-GlcNAcase (OGA). The hydrolysis FM-GlcNAc (Marker Gene technologies, cat #M1485) results in the formation of ß-D-N-glucosamineacetate and fluorescein. The fluorescence of the latter can be measured at excitation wavelength 485 nm and emission wavelength 538 nm. An increase in enzyme activity results in an increase in fluorescence signal. Full length OGA enzyme was purchased at OnGene (cat #TP322411). The enzyme was stored in 25 mM Tris.HCl, pH 7.3, 100 mM glycine, 10% glycerol at −20° C. Thiamet G and GlcNAcStatin were tested as reference compounds (Yuzwa et al. 2008 Nature Chemical Biology 4:483; Yuzwa et al. 2012 Nature Chemical Biology 8:393). The assay was performed in 200 mM Citrate/phosphate buffer supplemented with 0.005% Tween-20. 35.6 g Na2HPO4 2 H2O (Sigma, #C0759) were dissolved in 1 L water to obtain a 200 mM solution. 19.2 g citric acid (Merck, #1.06580) was dissolved in 1 L water to obtain a 100 mM solution. pH of the sodium phosphate solution was adjusted with the citric acid solution to 7.2. The buffer to stop the reaction consists of a 500 mM Carbonate buffer, pH 11.0. 734 mg FM-GlcNAc were dissolved in 5.48 mL DMSO to obtain a 250 mM solution and was stored at −20° C. OGA was used at a 2 nM concentration and FM-GlcNAc at a 100 uM final concentration. Dilutions were prepared in assay buffer. 50 nl of a compound dissolved in DMSO was dispensed on Black Proxiplate™ 384 Plus Assay plates (Perkin Elmer, #6008269) and 3 μl fl-OGA enzyme mix added subsequently. Plates were pre-incubated for 60 min at room temperature and then 2 μl FM-GlcNAc substrate mix added. […] Plates were briefly centrifuged for 1 min at 1000 rpm and incubate at room temperature for 6 h. To stop the reaction 5 μl STOP buffer were added and plates centrifuge again 1 min at 1000 rpm. Fluorescence was quantified in the Thermo Scientific Fluoroskan Ascent or the PerkinElmer EnVision with excitation wavelength 485 nm and emission wavelength 538 nm. For analysis a best-fit curve is fitted by a minimum sum of squares method. From this an IC50 value and Hill coefficient was obtained. High control (no inhibitor) and low control (saturating concentrations of standard inhibitor) were used to define the minimum and maximum values.

[2] = test system: OGA in HEK293 cells inducible for P301L mutant human Tau (isoform 2N4R); assay: OGA cellular assay: immunocytochemical detection of O-GlcNAcylated proteins (CTD110.6 antibody); type: cell-based; conditions: Homo sapiens, HEK293, 6 h, 6 hours incubation; for Emax: maximum = Thiamet G 200 uM; for EC50: read-out: Cellular hOGA, pEC50 (converted)
Protocol: HEK293 cells inducible for P301L mutant human Tau (isoform 2N4R) were established at Janssen. Thiamet-G was used for both plate validation (high control) and as reference compound (reference EC50 assay validation). OGA inhibition is evaluated through the immunocytochemical (ICC) detection of O-GlcNAcylated proteins by the use of a monoclonal antibody (CTD110.6; Cell Signaling, #9875) detecting 0-GlcNAcylated residues as previously described (Dorfmueller et al. 2010 Chemistry & biology, 17:1250). Inhibition of OGA will result in an increase of O-GlcNAcylated protein levels resulting in an increased signal in the experiment. Cell nuclei are stained with Hoechst to give a cell culture quality control and a rough estimate of immediate compounds toxicity, if any. ICC pictures are imaged with a Perkin Elmer Opera Phenix plate microscope and quantified with the provided software Perkin Elmer Harmony 4.1.
Cells were propagated in DMEM high Glucose (Sigma, #D5796) following standard procedures. 2 days before the cell assay cells are split, counted and seeded in Poly-D-Lysine (PDL) coated 96-wells (Greiner, #655946) plate at a cell density of 12,000 cells per cm^2 (4,000 cells per well) in 100p of Assay Medium (Low Glucose medium is used to reduce basal levels of GlcNAcylation) (Park et al. 2014 The Journal of biological chemistry 289:13519). At the day of compound test medium from assay plates was removed and replenished with 90 µl of fresh Assay Medium. 10p of compounds at a 10 fold final concentration were added to the wells. Plates were centrifuged shortly before incubation in the cell incubator for 6 hours. DMSO concentration was set to 0.2%. Medium is discarded by applying vacuum. For staining of cells medium was removed and cells washed once with 100 μl D-PBS (Sigma, #D8537). From next step onwards unless other stated assay volume was always 50p and incubation was performed without agitation and at room temperature. Cells were fixed in 50 μl of a 4% paraformaldehyde (PFA, Alpha aesar, #043368) PBS solution for 15 minutes at room temperature. […] Before analysis samples were washed 2 times manually for 5 minutes in ICC base buffer.
Imaging is performed using Perkin Elmer Phenix Opera using a water 20× objective and recording 9 fields per well. Intensity readout at 488 nm is used as a measure of O-GlcNAcylation level of total proteins in wells. To assess potential toxicity of compounds nuclei were counted using the Hoechst staining. IC50-values are calculated using parametric non-linear regression model fitting. As a maximum inhibition Thiamet G at a 200 uM concentration is present on each plate. In addition, a concentration response of Thiamet G is calculated on each plate.

Row | SMILES | Emax [1] [%] | IC50 [1] [nM] | Emax [2] [%] | EC50 [2] [nM] | Enzymatic hOGA; pIC50 [1]
1 | CCCCn1ccc2c(Nc3c(C)cc4c(cnn4C)c3C)nccc21 [Compound 87] | 102 | 4.79 | 87 | 12.9 | 
2 | Cc1cc(C)c(Nc2nccc3c2ccn3CC(F)(F)C(C)C)c(OC(F)F)n1 [Compound 179] | 102 | 2.04 | 80.9 | 20.4 | 
3 | CCCCn1ccc2c(Nc3c(C)cc(F)cc3C)nccc21 [Compound 73] | 101 | 2.69 | 93 | 53.7 | 
4 | FC1(F)CC1CCn1ccc2c(Nc3c(Cl)cccc3Cl)nccc21 (stereo not shown) [Compound 95] | 104 |  | 63 | 525 | 7.61
5 | Cc1cc(F)cc(C(C)C)c1Nc1nccc2c1ccn2CC1CCO1 (stereo not shown) [Compound 163] | 104 |  | 90.3 | 4.17 | 8.63
6 | CCCCn1ccc2c(Nc3c(C)cc4c(c3C)CC(=O)N(C)C4)nccc21 [Compound 88] | 103 | 4.07 | 95 | 10.7 | 
7 | CCCC(C)n1ccc2c(Nc3c(Cl)cccc3Cl)nccc21 (stereo not shown) [Compound 39] | 102 | 53.7 | 56 | 692 | 
8 | Cc1cc(Cl)cc(C)c1Nc1nccc2c1ccn2CC(C)(F)F [Compound 150] | 101 |  | 82.1 | 5.37 | 8.57
9 | Cc1cc(C)c(Nc2nccc3c2ccn3CC(C)(F)F)c(OC(F)F)n1 [Compound 156] | 102 |  | 70.9 | 45.7 | 8.07
10 | Cc1ccnc(OC(F)F)c1Nc1nccc2c1ccn2CC1CC(F)(F)C1 [Compound 114] | 100 |  | 49.6 | 871 | 7.03
11 | Cc1ccnc(C(C)C)c1Nc1nccc2c1ccn2CC1CCOC1 (stereo not shown) [Compound 141] | 103 |  | 74.7 | 107 | 7.76
12 | Fc1cc(Cl)c(Nc2nccc3c2ccn3CC2CCOC2)c(Cl)c1 (stereo not shown) [Compound 139] | 104 |  | 69.7 | 398 | 7.8
13 | Cc1cncc(C)c1Nc1nccc2c1ccn2CC1CC1 [Compound 41] | 101 | 24.5 | 71 | 95.5 | 
